Data: publication PMC5118774 (Frontiers in Pharmacology, 2016)
“Also recorded” adds a separate entry of the source.

What was measured:
Assay type in all cases: in vivo, C57BL/6J mice
[1] = system: mice exposed to unpredictable chronic mild stress (UCMS); assay: Cookie test after UCMS
Source text: (§1) Mice underwent between 6 and 8 weeks of UCMS (see Supplementary Table S1 for example UCMS schedule). Animals were exposed to 2–3 mild stressors each day throughout the light/dark cycle, including wet bedding, brief restraint, forced bath, no bedding, reduced space, and predator odor over a period of several weeks (see details in Supplementary Material) ([Edgar et al., 2011]; [Lin and Sibille, 2015]). Female mice were housed 5 per cage, and male mice were housed 4 per cage in Optimice cages (Animal Care Systems Inc, Centennial, CO, USA). In experiment 3.4, UCMS was augmented with single-cage isolation housing in male mice beginning at the fourth week of UCMS until sacrifice. A timeline of experimental procedures can be found in Figure 2A (including timeline of the sections “ Drug Treatment” and “Behavioral Testing”).
(§2) At the start of the third week of UCMS and continuing for between 28 and 42 days (including time for behavioral tests, see “Behavioral Testing”) until sacrifice, mice received daily i.p injections of vehicle (85% ddH2O, 14% propylene glycol, 1% Tween 80) or 30 mg/kg SH-053-2’F-R-CH3 (α5-PAM; synthesized in the laboratory of Dr. James M. Cook) in a volume of […]. All animals received a single daily injection (chronic α5-PAM treated mice received SH-053-2’F-R-CH3, acute α5-PAM and vehicle treated animals received vehicle injections) between 8:00AM and 9:00AM until the start of behavioral testing. After 3 weeks of treatment, all mice began receiving a second injection 30 min prior to behavioral testing. All animals received a second injection of either vehicle (for chronic α5-PAM treated animals and UCMS-vehicle treated animals) or α5-PAM acutely (α5-PAM acute animals). All injections were performed using ultra-fine insulin syringes (31 gauge, 6 mm; Becton, Dickinson and Company, Franklin Lakes, NJ, USA).
(§3) After 5 weeks of UCMS, including 3 weeks of drug treatment, animals were assessed in a battery of behavioral tests (each test separated by 48 h, UCMS continued throughout behavioral testing for a period of 1–3 weeks). These tests included: Elevated plus maze: under red light, animals were placed on a plus maze with two open and two closed arms (30 cm × 5 cm). Number of entries into all arms as well as the time spent in the open arms was recorded for 10 min. Open field test: The open field test was conducted in a 43 cm ×43 cm arena under bright (800 lux) light. Using AnyMaze software (Stoelting, Wood Dale, IL, USA), the center 50% of the arena was identified and animals were tracked for 10 min. Novelty suppressed feeding test: Mice were food deprived for 24 h the day before testing. Testing occurred in brightly lit (∼1000 lux) open field arenas covered in bedding. A normal food pellet was placed into the brightly lit center and the latency for an animal to approach and bite the pellet was recorded over a 12 min session. Immediately following the session, animals were placed into their home cage and allowed to eat a weighed food pellet to assess hunger drive. Cookie test: The cookie test apparatus contains three identically sized chambers (40 cm × 20 cm × 20 cm) separated by two offset dividers. The outer walls of each chamber were clear and the only difference between each was the color of the divider, with one divider shaded white and the other black. One week prior to experimentation, mice were habituated in their home cage to a piece (2 ± 1 g) of Keebler Fudge Stripe Cookie (Kellogg’s Company, Battle Creek, MI, USA). On the first and second day of testing, a piece of cookie (2 ± 1 g) was placed into the chamber separated by the black divider. Mice were then placed into the opposing chamber separated by the white divider and monitored for 10 min. The latency for each mouse to bite the cookie was recorded. […]

α5 protein = assay: Total and surface α5 protein, surface biotinylation and Western blotting; conditions: acute or chronic treatment
Description: Dissected hippocampi were processed as described in [Pabba et al. (2014)] with minor modifications.
The following antibodies and their dilutions were used in this study: rabbit polyclonal anti-α5 (1:750; Thermo Fisher Scientific, Waltham, MA, USA), rabbit monoclonal anti-β1-[…] (NK-ATPase) (1:1000; Abcam, Cambridge, MA, USA), and mouse monoclonal anti-β-actin (1:100; Abcam, Cambridge, MA, USA).
Western blotting was performed using 5 μg of protein resolved on 8% SDS-PAGE and transferred onto PVDF membranes and developed using IR-Dye conjugated secondary antibody and detection using LI-COR (NE, USA). Quantification of bands was performed using Image Studio^TM Software (LI-COR, NE, USA). We analyzed α5 surface biotinylation in vehicle versus drug treated mice (N = 6 females and 4 males per group). Total α5 band intensities were normalized to β-actin, whereas surface α5 band intensities were normalized to NK-ATPase.

[2] = system: mice exposed to unpredictable chronic mild stress (UCMS); assay: Novelty suppressed feeding test after UCMS
Source text: as §1, §2, §3

[3] = female UCMS mice, acute treatment, vs UCMS-vehicle, second cohort (Figure 3)
[4] = female UCMS mice, chronic treatment, vs UCMS-vehicle, second cohort (Figure 3)
[5] = male UCMS mice, 37.5 mg/kg acute or chronic (Figure 4B), 37.5 mg/kg
[6] = male UCMS mice, acute or chronic 30 mg/kg i.p., first cohort (Figure 2)
[7] = male mice, UCMS plus single housing, chronic treatment (Figure 4A)

C#Cc1ccc2c(c1)C(c1ccccc1F)=N[C@H](C)c1c(C(=O)OCC)ncn1-2 [α5-PAM]
cookie test latency to bite the cookie ([1]; female UCMS mice, acute 30 mg/kg i.p., first cohort (Figure 2)): a trend in the same direction
cookie test latency to bite the cookie [1, 3]: reduces the latency to bite; also recorded: significantly reduced the latency to bite
cookie test latency to bite the cookie ([1]; female UCMS mice, chronic 30 mg/kg i.p., first cohort (Figure 2)): reduced the latency to bite; also recorded: significant decrease
cookie test latency to bite the cookie [1, 4]: reduces the latency to bite; also recorded: significantly reduced the latency to bite
cookie test, stress-induced behavior [1, 5]: No change; also recorded: failed to reduce
cookie test latency to bite the cookie [1, 6]: No significant effect; also recorded: No significant difference
cookie test, UCMS-induced behavioral phenotype [1, 7]: did not alter; also recorded: No significant effect
total or surface α5 protein expression, hippocampus (α5 protein; female UCMS mice): no difference; also recorded: No significant effect
total or surface α5 protein expression, hippocampus (α5 protein; male UCMS mice): no difference; also recorded: No significant effect
NSF latency to bite food pellet ([2]; female UCMS mice, acute 30 mg/kg i.p. 30 min before test, vs UCMS-vehicle, first cohort (Figure 2)): reduced the latency to bite; also recorded: reducing latency to bite
NSF latency to bite food pellet [2, 3]: reduces; also recorded: reduced the latency to bite
NSF latency to bite food pellet ([2]; female UCMS mice, chronic 30 mg/kg i.p., vs UCMS-vehicle, first cohort (Figure 2)): reduced the latency to bite; also recorded: reducing latency to bite
NSF latency to bite food pellet [2, 4]: reduces; also recorded: reduced the latency to bite
NSF, stress-induced behavior [2, 5]: No change; also recorded: failed to reduce
NSF latency to bite food pellet [2, 6]: no effect
NSF, UCMS-induced behavioral phenotype [2, 7]: did not alter; also recorded: No significant effect
